Tests used:
tumour cells [1] = settings: for Cytotoxicity E. coli: change of drug cytotoxicity on tumour cells after co-incubation with E. coli, bacteria removed by filtration, MTS, Up/Down/NC
tumour cells [2] = assay: in vitro cytotoxicity screen of drugs co-incubated with L. welshimeri (tumour cell survival assay, MTS); settings: change of drug cytotoxicity on tumour cells after co-incubation with L. welshimeri, bacteria removed by filtration, Up/Down/NC
[3] = tested on: Subcutaneous flank CT26 tumours; assay: murine model of intratumoural bacterial effects on chemotherapy
4T1 Luc cells = assay: tumour cell survival assay, drug co-incubated with E. coli, supernatant applied to 4T1 Luc cells; format: cell-based, mouse; settings: gemcitabine 10 µM co-incubated with E. coli at different cfu/ml, Figure 1b

| SMILES | Cytotoxicity E. coli (tumour cells [1]) | further results |
| --- | --- | --- |
| Nc1nc(=O)[nH]cc1F [5-fluorocytosine] | Up | – |
| OC[C@H]1O[C@@H](n2cnc3c(S)ncnc32)C[C@@H]1O [6-Mercaptopurine-2’-deoxyriboside] | Up | – |
| CC1(C)CCC2=C(O1)c1ccccc1C(=O)C2=O [B-Lapachone] | Down | – |
| NC(=O)c1cc(N2CC2)c([N+](=O)[O-])cc1[N+](=O)[O-] [CB1954] | Up | Cytotoxicity L. welshimeri (tumour cells [2]): Up; median survival post Day 0 ([3]; CB1954 + bacteria group: E. coli i.t., CB1954 20 mg/kg i.p.): 26 days; median survival post Day 0 ([3]; CB1954 alone group: PBS i.t., CB1954 20 mg/kg i.p.): 8 days |
| Nc1nc(Cl)nc2c1ncn2[C@H]1C[C@H](O)[C@@H](CO)O1 [Cladribine] | Down | Cytotoxicity L. welshimeri (tumour cells [2]): Down |
| COc1cccc2c1C(=O)c1c(O)c3c(c(O)c1C2=O)C[C@@](O)(C(C)=O)C[C@@H]3O[C@H]1C[C@H](N)[C@H](O)[C@H](C)O1 [Daunorubicin] | Down | Cytotoxicity L. welshimeri (tumour cells [2]): Down |
| COc1cccc2c1C(=O)c1c(O)c3c(c(O)c1C2=O)C[C@@](O)(C(=O)CO)C[C@@H]3O[C@H]1C[C@H](N)[C@H](O)[C@H](C)O1 [Doxorubicin] | Down | – |
| COc1cc([C@@H]2c3cc4c(cc3[C@@H](O[C@@H]3O[C@@H]5CO[C@@H](C)O[C@H]5[C@H](O)[C@H]3O)[C@H]3COC(=O)[C@H]23)OCO4)cc(OC)c1OP(=O)(O)O [Etoposide phosphate] | decreasing and Down | – |
| Nc1nc(F)nc2c1ncn2[C@@H]1O[C@H](COP(=O)(O)O)[C@@H](O)[C@@H]1O [Fludarabine de phosphate] | Up | Cytotoxicity L. welshimeri (tumour cells [2]): Up |
| Nc1ccn([C@@H]2O[C@H](CO)[C@@H](O)C2(F)F)c(=O)n1 [Gemcitabine] | decreasing and Down | cytotoxicity after incubation with heat-inactivated lysate (or intact bacteria) (tumour cells [1]; gemcitabine 10 µM, E. coli heat-inactivated at 95 °C, Figure 2): no reduction in cytotoxicity; efficacy (tumour cell survival) (4T1 Luc cells): decreased; tumour volume ([3]; gemcitabine + bacteria group compared with gemcitabine alone group, various time points, gemcitabine 60 mg/kg i.p., E. coli i.t.): Significantly increased; median survival post Day 0 ([3]; gemcitabine + bacteria group: E. coli i.t., gemcitabine 60 mg/kg i.p.): 17 days; median survival post Day 0 ([3]; gemcitabine alone group: PBS i.t., gemcitabine 60 mg/kg i.p.): 28 days |
| CC(=O)[C@]1(O)Cc2c(O)c3c(c(O)c2[C@@H](O[C@H]2C[C@H](N)[C@H](O)[C@H](C)O2)C1)C(=O)c1ccccc1C3=O [Idarubicin] | Down | – |
| CC1=CC(=O)c2ccccc2C1=O [Menadione] | Down | – |
| O=C1c2c(O)ccc(O)c2C(=O)c2c(NCCNCCO)ccc(NCCNCCO)c21 [Mitoxantrone] | Down | – |
| O=c1[nH]c(=O)n(C2CCCO2)cc1F (centres unmarked) [Tegafur] | increasing and Up | – |
| Nc1ncnc2c1ncn2[C@@H]1O[C@H](CO)[C@@H](O)[C@@H]1O [Vidarabine] | decreasing and Down | – |

— patent EP2998000A1, “COMBINATION THERAPY FOR CANCER” (priority 2014, dated 2016)
